Assay results published in patent US10745778B2, “Leaching aids and methods of using leaching aids” (BASF SE, priority 2015, dated 2020).

Assay: Surface tension of synthetic pregnant leaching solution (Example 4)
Assay type: physicochemical
Conditions: synthetic PLS 6 g/L copper, 2 g/L iron, pH about 2.0
Description: This example investigated a method for determining the impact of a leaching aid on the surface tension of a typical leaching solution. A synthetic pregnant leaching solution (“PLS”) of 6 g/L copper and 2 g/L iron at a pH of about 2.0 was prepared in deionized (“DI”) water to form a quality control (“QC”) feed. To this, mixtures of synthetic PLS having varying levels of Leach aid A (i.e., MC1000) or Leach Aid B (i.e., TMP-7(EO)) were prepared and the surface tension of each solution was measured.

CCCCCCCCCC[N+](C)(C)CC(=O)[O-] [MC1000]
surface tension as a function of concentration of the leaching aid: decreased with increasing concentration
